Data on 24 molecules can be found in patent US20020028809A1 (SUNTORY LIMITED, priority 1999, published 2002).

Assay [1] concerns the target T1, α1β1γδ subtype of nicotinic acetylcholine receptors (Rattus norvegicus, UniProt P18916+P25108+P25109+P25110).
T1 construct: Native receptor, no construct: "Triton X100 (2% w/v) was added
Kind of assay: Binding assays at α1β1γδ subtype of nicotinic acetylcholine receptors ([3H]-α-bungarotoxin, rat muscle extract). Conditions: for remaining activity at 100 µM / remaining activity at 1000 µM: read-out: control % of [3H]-α-Bgt binding. An excerpt:
(§1) Methods for evaluating binding capabilities of the compounds at nicotinic acetylcholine receptors are different by subtypes of receptors. Binding capabilities of the compounds at α4β2 nicotinic acetylcholine receptors are examined using rat brain membrane obtained from whole homogenized brain, and determining the inhibiting rate of the compounds against [^3H]-cytisine binding to said brain membrane. Furthermore, the binding capabilities of the compounds at α1β1γδ nicotinic acetylcholine receptors are examined using homogenized rat muscle, and determining the inhibiting rate of the compounds against [^3H]-α-bungarotoxin binding to said muscle homogenate.
Binding Assays at α1β1γδ Subtype of Nicotinic Acetylcholine Receptors
Affinity of the compounds of the present invention to α1βγδ subtype of nicotinic acetylcholine receptors was measured by the following method, which was modified method described by Garcha H. S., Thomas P., Spivak C.
(1) Preparation of Rat Skeletal Muscles Containing α1β1γδ Subtype of Nicotinic Acetylcholine Receptors
The substantially same animals described in the Biological Experiment 1 were used.
Isolation of α1β1γδ subtype of nicotinic acetylcholine receptors was performed as follow. That is, rat posterior skeletal muscles were isolated just after sacrificed by decapitation, washed with ice-cooled saline solution and then frozen at −80° C. with liquid nitrogen and stored till using. After thawing the frozen muscles, tissue was homogenized (40% w/v) with buffer solution [2.5 mM of sodium phosphate buffer (pH:7.2), 90 mM of NaCl, 2 mM of KCl, 1 mM of EDTA, 2 mM of benzamidine, 0.1 mM of benzethonium chloride, […], 0.01% of sodium azide] in Waring blender (Waring blender 34BL97; WARING PRODUCTS DIVISION DYNAMICS CORPORATION OF AMERICA) for 60 seconds. The homogenate were centrifuged under 20,000×G for 60 minutes at 4° C. The supernatant was separated and the resulting pellet was added to the same buffer (1.5 ml/g wet weight), and homogenized under the same conditions. Triton X100 (2% w/v) was added and the mixture was stirred for 3 hours at 4° C. The centrifugation at 100,000×G for 60 minutes at 4° C. yielded the rat muscle extract as supernatant. This was stored at 4° C. for up to 4 weeks, and used for binding assays at receptors.
(2) Experiments of α1β1γδSubtype of Nicotinic Acetylcholine Receptors Binding
Receptors binding experiments were performed as follow. That is, the extract of rat muscle containing 600-900 μg of protein was added to test tubes containing test compounds and incubated for 15 minutes at 37° C. Then, to this mixture was added 1 nM of [^3H]-α-bungarotoxin (α-Bgt) and further incubated for 2 hours. The samples were isolated by vacuum filtration onto Whatman GF/B filters, which were prerinsed with 0.5% polyethylenimine just prior to sample filtration, using Brandel multi manifold cell harvester. The filters were rapidly rinsed with washing solution (10 mM of KH2PO4, 150 mM of NaCl, pH 7.2, room temperature) (5×1 ml). The filters were counted in 3 ml of clearsol I (Nacalai Tesque Inc.). Determination of nonspecific binding was incubated in the presence of 1 μM α-Bgt.
In the receptor binding experiments, said buffer solution was added for adjusting the final concentration of BSA to be 0.05%.
Analyses of the experimental results were conducted by the same way as described in the Biological Experiment 1.

For assay [2], the target named is T2, α4β2 subtype of nicotinic acetylcholine receptors (Rattus norvegicus, UniProt P09483+P12390).
T2 construct: examined using rat brain membrane obtained from whole homogenized brain; from tissue; host or cells: whole brain of Fischer-344 male rats, membrane pellet
Nature of the assay: Binding assays at α4β2 subtype of nicotinic acetylcholine receptors ([3H]-cytisine, rat brain membrane).
From the text: as §1
Binding assays at α4β2 Subtype of Nicotinic Acetylcholine Receptors
(1) Preparation of Rat Brain Membrane Containing α4β2 Subtype of Nicotinic Acetylcholine Receptors
Rats were housed in the breeding cage controlled of the room temperature at 23±1° C., and the humidity of 55±5% for 1 to 4 weeks. Rats (3 to 4 rats per a cage) were housed with lights on for 12 hours daily (from 7:00 to 19:00), and allowed free access to food and water.
Preparation of rat brain membrane containing α4β2 subtype of nicotinic acetylcholine receptors was performed as follow. That is, rat brains were isolated just after sacrificed by decapitation, washed with ice-cooled saline solution and then frozen at −80° C. with liquid nitrogen and stored till using. After thawing the frozen brain, the brain was homogenized in 10 volumes of ice-cooled buffer solution (50 mM of Tris-HCl, 120 mM of NaCl, 5 mM of KCl, 1 mM of MgCl2, 2mM of CaCl2; pH 7.4; 4° C.) using homogenizer (HG30, Hitachi Kohki Ltd.) for 30 seconds, and the homogenate were centrifuged under 1,000×G for 10 minutes at 4° C. The resulting supernatant was separated and the pellet was homogenized again with half volume of aforementioned prior buffer solution and centrifuged under the same conditions. Combined supernatant was further centrifuged under 40,000×G for 20 minutes at 4° C. The pellet was suspended in buffer solution and used for binding assays at receptors.
(2) Experiments of α4β2 Subtype of Nicotinic Acetylcholine Receptors Binding
Suspensions of membrane pellets containing 400-600 μg of protein were added to test tubes containing test compounds and [^3H]-cytisine (2 nM) in a final volume of 200 μl and incubated for 75 minutes in ice-cooled bath. The samples were isolated by vacuum filtration onto Whatman GF/B filters, which were prerinsed with 0.5% polyethylenimine just prior to sample filtration, using Brandel multi manifold cell harvester. The filters were rapidly washed with buffer solution (3×1 ml). The filters were counted in 3 ml of clearsol I (Nacalai Tesque Inc.).
Analyses of the experimental results were conducted using the Accufit Competition Program (Beckman Ltd.).

The mark [3] stands for this setting: rat brain membrane, [3H]-cytisine (2 nM), read-out: Affinities for receptors Ki α4β2.

Like-named read-outs stand apart in the source and are kept apart here.

T2 sequence (P09483 31-630): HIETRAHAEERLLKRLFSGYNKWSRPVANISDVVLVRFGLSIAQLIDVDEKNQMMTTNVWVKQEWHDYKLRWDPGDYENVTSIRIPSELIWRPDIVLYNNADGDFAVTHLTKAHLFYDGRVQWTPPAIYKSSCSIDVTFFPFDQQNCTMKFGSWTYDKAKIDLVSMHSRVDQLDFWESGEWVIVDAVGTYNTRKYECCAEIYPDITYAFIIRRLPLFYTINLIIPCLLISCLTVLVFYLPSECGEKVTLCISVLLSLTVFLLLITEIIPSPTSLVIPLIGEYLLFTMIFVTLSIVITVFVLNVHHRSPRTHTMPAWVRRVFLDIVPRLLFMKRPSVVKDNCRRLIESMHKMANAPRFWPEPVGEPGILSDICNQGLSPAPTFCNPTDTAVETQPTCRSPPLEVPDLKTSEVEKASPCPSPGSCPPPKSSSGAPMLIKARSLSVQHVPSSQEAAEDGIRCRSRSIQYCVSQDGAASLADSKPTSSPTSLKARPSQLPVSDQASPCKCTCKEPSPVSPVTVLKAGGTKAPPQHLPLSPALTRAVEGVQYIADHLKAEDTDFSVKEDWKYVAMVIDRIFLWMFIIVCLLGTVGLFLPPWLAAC
T2 sequence (P12390 25-500): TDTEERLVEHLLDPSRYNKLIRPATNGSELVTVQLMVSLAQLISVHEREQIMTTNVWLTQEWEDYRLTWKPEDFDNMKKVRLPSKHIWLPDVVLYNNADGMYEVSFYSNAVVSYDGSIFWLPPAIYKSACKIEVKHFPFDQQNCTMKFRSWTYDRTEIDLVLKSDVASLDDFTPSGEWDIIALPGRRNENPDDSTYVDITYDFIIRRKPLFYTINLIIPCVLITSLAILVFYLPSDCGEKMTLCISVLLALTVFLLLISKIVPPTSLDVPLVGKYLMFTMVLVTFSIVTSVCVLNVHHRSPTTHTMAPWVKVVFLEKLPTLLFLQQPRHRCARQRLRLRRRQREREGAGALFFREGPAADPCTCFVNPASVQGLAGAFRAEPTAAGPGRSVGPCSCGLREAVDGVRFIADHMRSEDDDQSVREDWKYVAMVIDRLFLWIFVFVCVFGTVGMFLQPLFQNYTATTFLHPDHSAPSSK
T1 sequence (P25108 21-457): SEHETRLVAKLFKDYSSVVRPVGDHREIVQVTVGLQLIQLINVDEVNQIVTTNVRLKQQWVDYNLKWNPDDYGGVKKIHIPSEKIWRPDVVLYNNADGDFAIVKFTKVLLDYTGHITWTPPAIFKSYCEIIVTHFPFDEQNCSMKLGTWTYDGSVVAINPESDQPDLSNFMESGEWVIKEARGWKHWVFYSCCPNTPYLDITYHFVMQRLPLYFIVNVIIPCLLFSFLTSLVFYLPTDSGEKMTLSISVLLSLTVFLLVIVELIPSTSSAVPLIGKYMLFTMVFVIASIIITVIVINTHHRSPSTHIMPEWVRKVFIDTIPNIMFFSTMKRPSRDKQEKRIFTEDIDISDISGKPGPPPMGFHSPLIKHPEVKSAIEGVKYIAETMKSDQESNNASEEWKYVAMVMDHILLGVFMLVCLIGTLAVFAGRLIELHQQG
T1 sequence (P25110 22-517): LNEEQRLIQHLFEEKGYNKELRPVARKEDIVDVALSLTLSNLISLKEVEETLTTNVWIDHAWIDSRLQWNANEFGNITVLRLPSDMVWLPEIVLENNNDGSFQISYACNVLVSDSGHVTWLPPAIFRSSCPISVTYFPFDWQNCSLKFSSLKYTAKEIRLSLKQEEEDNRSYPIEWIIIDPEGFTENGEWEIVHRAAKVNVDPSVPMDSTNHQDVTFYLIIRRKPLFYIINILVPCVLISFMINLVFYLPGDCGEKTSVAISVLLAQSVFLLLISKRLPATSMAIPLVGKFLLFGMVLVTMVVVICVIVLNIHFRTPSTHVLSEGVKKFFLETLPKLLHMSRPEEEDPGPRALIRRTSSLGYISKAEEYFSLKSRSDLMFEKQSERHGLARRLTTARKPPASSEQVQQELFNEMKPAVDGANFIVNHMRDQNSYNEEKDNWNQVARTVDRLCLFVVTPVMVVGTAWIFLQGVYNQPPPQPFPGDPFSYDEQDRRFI
T1 sequence (P25109 24-501): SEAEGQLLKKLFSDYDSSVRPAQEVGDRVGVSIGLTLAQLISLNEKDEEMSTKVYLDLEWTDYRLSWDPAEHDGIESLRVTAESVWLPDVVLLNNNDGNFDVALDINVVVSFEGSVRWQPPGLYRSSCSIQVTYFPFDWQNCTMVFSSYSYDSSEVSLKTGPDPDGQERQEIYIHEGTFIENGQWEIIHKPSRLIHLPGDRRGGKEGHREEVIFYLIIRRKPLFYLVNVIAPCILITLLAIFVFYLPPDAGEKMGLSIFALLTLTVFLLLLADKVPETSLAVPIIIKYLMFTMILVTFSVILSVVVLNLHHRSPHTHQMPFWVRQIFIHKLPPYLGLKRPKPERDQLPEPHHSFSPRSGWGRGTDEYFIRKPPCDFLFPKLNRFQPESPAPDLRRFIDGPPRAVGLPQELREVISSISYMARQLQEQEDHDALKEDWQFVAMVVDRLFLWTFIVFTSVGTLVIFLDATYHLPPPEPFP

A word on the Ki: it is a measure of affinity in units of concentration, obtained from inhibition or displacement. Take `CN1CCCC1c1cccnc1` (single isomer, unassigned; (-)) [Nicotine, (−)-nicotine, reference compound]: the Ki in assay [1] amounted to 182000 nM.

In the case of `Cc1csc(=N)n1Cc1ccc(Cl)nc1` [Compound 2, 3-(6-chloro-3-pyridyl)methyl-2-imino-4-methyl-2,3-dihydrothiazole], the figures for the inhibition constant (Ki) in assay [2] and in assay [1] were 3.5 nM and 12800 nM, respectively.

Turning to `Cc1cn(Cc2ccc(Cl)nc2)c(=N)s1` [Compound 3, 3-(6-chloro-3-pyridyl)methyl-2-imino-5-methyl-2,3-dihydrothiazole], the Ki in assay [2] amounted to 5.8 nM. For the same molecule, in assay [1], the remaining activity at 100 µM was 69% and the remaining activity at 1000 µM amounted to 28%.

`N=C1SCCN1Cc1cccnc1` [Compound 4, 2-imino-3-(3-pyridyl)methylthiazolidine] registered an inhibitory constant (Ki) in assay [2] of 7.5 nM. Also, in assay [1], the remaining activity at 100 µM was 6% and the remaining activity at 1000 µM was 1%.

For the molecule `N=c1ncccn1Cc1ccc(Cl)nc1` [Compound 10, 1-(6-chloro-3-pyridyl)methyl-2-imino-1,2-dihydropyrimidine], the Ki turned out to be 8.7 nM in assay [2] and 347000 nM in assay [1].

In the case of `N=C1CCCCN1Cc1ccc(Cl)nc1` [Compound 15, 1-(6-chloro-3-pyridyl)methyl-2-iminopiperidine], in assay [2] (setting [3]), the Ki is 4.8 nM. In assay [1], the remaining activity at 100 µM was 21% and the remaining activity at 1000 µM was 4%.

Consider `N=C1SCCCN1Cc1ccc(Cl)nc1` [Compound 17, 3-(6-chloro-3-pyridyl)methyl-2-imino-3,4,5,6-tetrahydro-2H-1,3-thiazine], for which the inhibition constant Ki in assay [2] (setting [3]) came out at 520 nM. Moreover, in assay [1], the remaining activity at 100 µM is 68% and the remaining activity at 1000 µM was 23%.

In the case of `Cc1csc(=N)n1Cc1ccc(F)nc1` [Compound 18, 3-(6-fluoro-3-pyridyl)methyl-2-imino-4-methyl-2,3-dihydrothiazole], the values for the Ki in assay [2] and in assay [1] were 10.8 nM and 5800 nM, respectively.

Regarding `Cc1sc(=N)n(Cc2ccc(Cl)nc2)c1C` [Compound 20, 3-(6-chloro-3-pyridyl)methyl-2-imino-4,5-dimethyl-2,3-dihydrothiazole], in assay [2], the Ki came to 7.56 nM. In assay [1], the remaining activity at 100 µM was found to be 96% and the remaining activity at 1000 µM came to 45%.

In assay [2], `CCc1csc(=N)n1Cc1ccc(Cl)nc1` [Compound 21, 3-(6-chloro-3-pyridyl)methyl-4-ethyl-2-imino-2,3-dihydrothiazole] yielded a Ki of 21.7 nM. In assay [1], the remaining activity at 100 µM came out at 57% and the remaining activity at 1000 µM came to 19%.

Turning to `N=c1ccc(Cl)cn1Cc1ccc(Cl)nc1` [Compound 22, 5-chloro-1-(6-chloro-3-pyridyl)methyl-2-imino-1,2-dihydropyridine], the affinity in assay [2] corresponds to a Ki of 33.7 nM. Also, in assay [1], the remaining activity at 100 µM amounted to 75% and the remaining activity at 1000 µM amounted to 28%.

In assay [2], `Cc1cccn(Cc2ccc(Cl)nc2)c1=N` [Compound 23, 1-(6-chloro-3-pyridyl)methyl-2-imino-3-methyl-1,2-dihydropyridine] gave a Ki of 221 nM. In assay [1], the remaining activity at 100 µM stood at 89% and the remaining activity at 1000 µM stood at 52%.

`Cc1ccc(=N)n(Cc2ccc(Cl)nc2)c1` [Compound 24, 1-(6-chloro-3-pyridyl)methyl-2-imino-5-methyl-1,2-dihydropyridine]: the affinity in assay [2] corresponds to a Ki of 48.6 nM. In assay [1], the remaining activity at 100 µM was determined as 80% and the remaining activity at 1000 µM stood at 36%.

`Cc1ccn(Cc2ccc(Cl)nc2)c(=N)c1` [Compound 25, 1-(6-chloro-3-pyridyl)methyl-2-imino-4-methyl-1,2-dihydropyridine]: the Ki in assay [2] was 171 nM. Also, in assay [1], the remaining activity at 100 µM is 90% and the remaining activity at 1000 µM was 58%.

With `N=c1ccccn1Cc1cccnc1` [Compound 26, 2-imino-1-(3-pyridyl)methyl-1,2-dihydropyridine], the Ki in assay [2] was 28.2 nM; in assay [1], 41600 nM.

As to `CC1CSC(=N)N1Cc1ccc(Cl)nc1` (stereo not drawn) [Compound 27, 3-(6-chloro-3-pyridyl)methyl-2-imino-4-methylthiazolidine], the Ki amounted to 53.1 nM in assay [2] and 16300 nM in assay [1].

As to `Cc1csc(=N)n1Cc1cncc(Br)c1` [Compound 30, 3-(5-bromo-3-pyridyl)methyl-2-imino-4-methyl-2,3-dihydrothiazole], the Ki worked out at 26.7 nM in assay [2] and 22500 nM in assay [1].

With `Cc1ccc(CN2CCSC2=N)cn1` [Compound 32, 2-imino-3-(6-methyl-3-pyridyl)methylthiazolidine], the Ki in assay [2] was 10 nM; in assay [1], 14600 nM.

As for `Cc1cc(CN2CCSC2=N)on1` [Compound 35, 2-imino-3-(3-methyl-5-isoxazolyl)methylthiazolidine], the Ki in assay [2] was determined as 41 nM. Further, in assay [1], the remaining activity at 100 µM turned out to be 12% and the remaining activity at 1000 µM is -3%.

As for `Cc1cc(Cn2c(C)csc2=N)on1` [Compound 36, 2-imino-4-methyl-3-(3-methyl-5-isoxazolyl)methyl-2,3-dihydrothiazole], the Ki in assay [2] worked out at 263 nM. In addition, in assay [1], the remaining activity at 100 µM was found to be 10% and the remaining activity at 1000 µM was 2%.

In the case of `Cc1csc(=N)n1Cc1cnc(Cl)s1` [Compound 37, 3-(2-chloro-5-thiazolyl)methyl-2-imino-4-methyl-2,3-dihydrothiazole], the inhibition constant Ki in assay [2] amounted to 16.4 nM; in assay [1] it was 22900 nM.

In the case of `Cc1csc(=N)n1Cc1cnc(Cl)c(Cl)c1` [Compound 38, 3-(5,6-dichloro-3-pyridyl)methyl-2-imino-4-methyl-2,3-dihydrothiazole], the Ki worked out at 10.6 nM in assay [2] and 65200 nM in assay [1].

For `Cc1ccc(Cn2c(C)csc2=N)cn1` [Compound 39, 2-imino-4-methyl-3-(6-methyl-3-pyridyl)methyl-2,3-dihydrothiazole], the Ki in assay [2] was found to be 30.5 nM; in assay [1], 10800 nM.

`N=c1sc(-c2ccccc2)cn1Cc1ccc(Cl)nc1` [Compound 40, 3-(6-chloro-3-pyridyl)methyl-2-imino-5-phenyl-2,3-dihydrothiazole]: the Ki in assay [2] turned out to be 355 nM. For the same molecule, in assay [1], the remaining activity at 100 µM was 71% and the remaining activity at 1000 µM was 35%.
